Source: US4992470A, “Method of enhancing immune response of mammals” (Iowa State University Research Foundation, Inc., priority 1990, dated 1991)

Experiments:
[1] = Stability of HMB (and KIC) in the rumen: incubation in diluted rumen fluid; format: in vitro ADME, steer
Protocol: Rumen fluid was collected from a fistulated steer. After filtration and dilution (1:4) with an artificial saliva, 25ml of the solution was added to 50ml plastic tubes. Each tube was fitted with a one-way valve to allow gases to escape while not allowing air into the tube. Each tube was then gassed with C02 and incubated at 39° C. After 30 min a solution of KIC or HMB was added to the tube in concentrations to simulate what would be present in the rumen of an animal consuming .05% of the diet as KIC or HMB. It was estimated that a 50uM concentration would be attained in this case. At timed intervals 50ul samples of this rumen fluid were taken and analyzed for KIC and HMB.

lymphocytes = test: In vitro effects of leucine or leucine metabolites on PHA-stimulated lymphocyte blastogenesis (3H-thymidine incorporation); format: cell-based, bovine; conditions: for activation at 1000 µM: Bos taurus, Lymphocyte, 72 h, final concentration 1 mM, PHA stimulated, read-out: % Change from No Additive, in vitro lymphocyte blastogenesis (Mean Percent Change, SEM)
Protocol: Lymphocyte Blastogenesis Determinations. Blood collections, lymphocyte isolation and blastogenesis assays were performed on isolated bovine cells by using a 3-d culture procedure as described previously in Kuhlman, et al. (1988), J. Nutr., 118:1564-1569.
Isolated lymphocytes were exposed to 1 and 10 mM Leu and KIC and the metabolites isovalarate, β-hydroxy-β-methyl butyrate (HMB), β-hydroxy-β-methyl glutarate, butyrate, acetate, acetone, acetoacetate, and β-hydroxy butyrate (BOHB). The cells were then stimulated with the mitogen phytohemagglutinin, and incorporation of ^3 H-thymidine into the DNA of the dividing lymphocytes was measured.
Leucine and Leucine Metabolites. Most of the compounds listed in Table B were purchased from Sigma Chemical Company, St. Louis, MO. KIC was purchased from SOBAC (Paris, France), HMB was synthesized as described in Example 1, and the calcium salt of HMB was purified by crystallization in 95% ethanol. The calcium salt was converted to a sodium salt form and used in subsequent assays. The pH of all compounds was adjusted to approximately 7.3. Compounds were passed through a 0.2-um filter assembly to assure sterility.

[2] = rat feeding studies; cited from earlier work
[3] = cited from earlier work
T lymphocytes = conditions: U.S. Pat. No. 4,835,185; cited from earlier work
[4] = U.S. Pat. No. 4,835,185; cited from earlier work
[5] = Hygroscopicity of HMB salts; format: physicochemical; conditions: compared with Ca-HMB

## CC(C)CC(=O)C(=O)O [KIC, α-keto-isocaproic acid]
[1]
  Stability in rumen environment (in words): rapidly destroyed by the rumen bacteria
[1]; 0 min after addition, rumen fluid diluted 1:4, 39° C., initial concentration of KIC was estimated
  KIC / HMB in rumen fluid: 30 µM
[1]; 15 min after addition, rumen fluid, 39° C.
  KIC / HMB in rumen fluid: 15 µM
[1]; 30 min after addition, rumen fluid, 39° C.
  KIC / HMB in rumen fluid: 4 µM
[1]; 60 min after addition, rumen fluid, 39° C.
  KIC / HMB in rumen fluid: 2 µM
[1]; 240 min after addition, rumen fluid, 39° C.
  KIC / HMB in rumen fluid: 2 µM
[1]; 480 min after addition, rumen fluid, 39° C.
  KIC / HMB in rumen fluid: 1 µM
lymphocytes
  Direct effect on the immune system (in words): have no effect on he immune system directly
  Effect on blastogenesis (in words): had no effects on blastogenesis
  activation at 1000 µM: -3 ± 7%
[2]
  Amount of KIC required to replace leucine: two to three times as much KIC as the nutritionally required amount of leucine
[3]; U.S. Pat. Nos. 4,760,090 and 4,760,531
  Cholesterol in meat, milk and eggs (in words): cholesterol reduction in meat, milk and eggs
[3]; lactating domestic animals, U.S. Pat. No. 4,758,593
  Milk production (in words): the quantity of milk produced may be increased
[3]; laying chickens, U.S. Pat. No. 4,760,531
  Egg production (in words): can also sometimes be increased
[3]; mature sheep, U.S. Pat. No. 4,760,090
  Wool production (in words): the amount of wool produced may also be increased
[3]; milligram amounts of KIC, U.S. Pat. Nos. 4,760,090 and 4,883,817
  Weight gain and/or feed efficiencies (in words): some increases in the rates of weight gain and/or feed efficiencies
T lymphocytes
  Blastogenesis function (in words): activating the blastogenesis function of the immune systems
[4]
  Plasma cortisol levels (in words): will usually decrease plasma cortisol levels

## CC(C)C[C@H](N)C(=O)O [Leucine, L-leucine]
lymphocytes
  Direct effect on the immune system (in words): have no effect on he immune system directly
  Effect on blastogenesis (in words): tended to suppress blastogenesis
  activation at 1000 µM: -12 ± 6%

## CC(C)(O)CC(=O)O [Na-HMB]
[5]
  Hygroscopicity (in words): more hydroscopic than Ca-HMB

## CC(O)(CC(=O)O)CC(=O)O [β-hydroxy-β-methyl glutarate]
lymphocytes
  Effect on blastogenesis (in words): increased blastogenesis slightly
  activation at 1000 µM: 28%

## CC(O)CC(=O)O (stereo not drawn) [β-hydroxybutyrate, β-hydroxy butyrate]
lymphocytes
  Effect on blastogenesis (in words): increased blastogenesis slightly
  activation at 1000 µM: 25%
